Target: T1, calpain-I isolated from human erythrocytes (Homo sapiens, UniProt P07384)
T1 construct: calpain-I—isolated from human erythrocytes; purchased Calbiochem 208713; host or cells: human erythrocytes (native tissue isolate)
T1 sequence (P07384 1-714): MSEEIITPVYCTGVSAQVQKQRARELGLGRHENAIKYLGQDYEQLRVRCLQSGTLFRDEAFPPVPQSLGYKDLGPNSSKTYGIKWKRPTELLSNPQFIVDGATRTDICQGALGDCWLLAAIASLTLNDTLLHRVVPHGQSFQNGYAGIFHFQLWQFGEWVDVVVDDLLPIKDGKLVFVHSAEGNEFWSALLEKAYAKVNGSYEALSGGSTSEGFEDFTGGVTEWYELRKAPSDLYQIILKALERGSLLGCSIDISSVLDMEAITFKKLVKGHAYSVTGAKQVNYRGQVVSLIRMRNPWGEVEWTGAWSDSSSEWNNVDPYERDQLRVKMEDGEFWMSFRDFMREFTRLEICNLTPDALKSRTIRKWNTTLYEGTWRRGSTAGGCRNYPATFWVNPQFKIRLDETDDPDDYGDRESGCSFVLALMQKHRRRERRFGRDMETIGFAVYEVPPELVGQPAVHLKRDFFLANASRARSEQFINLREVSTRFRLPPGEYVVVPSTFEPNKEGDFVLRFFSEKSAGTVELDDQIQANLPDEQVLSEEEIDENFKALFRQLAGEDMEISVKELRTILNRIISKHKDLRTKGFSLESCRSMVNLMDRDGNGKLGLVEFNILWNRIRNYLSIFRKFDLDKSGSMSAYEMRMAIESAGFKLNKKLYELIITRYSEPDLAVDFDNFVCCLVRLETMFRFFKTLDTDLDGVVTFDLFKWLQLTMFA
T1 sequence (P04632 1-268 partner): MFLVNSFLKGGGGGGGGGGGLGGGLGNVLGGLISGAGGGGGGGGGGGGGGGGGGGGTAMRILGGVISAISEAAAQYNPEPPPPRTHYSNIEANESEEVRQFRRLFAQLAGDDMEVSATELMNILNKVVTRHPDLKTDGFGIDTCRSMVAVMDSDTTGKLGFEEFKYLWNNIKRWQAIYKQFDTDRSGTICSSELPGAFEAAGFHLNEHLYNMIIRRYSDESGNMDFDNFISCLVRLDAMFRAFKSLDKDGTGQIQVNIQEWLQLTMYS
Experiment: Calpain I enzyme inhibition, kinetic fluorescence assay
Format: biochemical
Settings: apparent Ki from IC50 by Cheng-Prussoff; pH 7.3, room temperature
Description: The following solutions and buffers were employed: • HBS (for 40 ml): 800 μl 1M HEPES; 2.16 ml 100 mM KCl; 4.8 ml 1M NaCl; 3.59 ml 5% glucose; 60 μl 1M MgSO4; 400 μl 100 mM Na pyruvate, 28.19 ml water; pH 7.2-7.5. • lysis buffer (for 20 ml): 400 μl 1M Tris pH 8.2; 2.74 ml 1M NaCl; 520 μl 0.5M EDTA; 2 ml 10% triton X-100; 0.8 ml (=1:25) CompletePlus (1 tablet/2 ml H2O); 200 μl 100 mM Pefabloc; 13.34 ml water, pH 8.2. • TBST (10×) (for 1I): 100 mM Tris (12.1 g); 1.5M NaCl (87 g); 1% Tween 20 (10 g), adjusted to pH 8. I. Enzyme Inhibition In Vitro: • Testing for blockade of the corresponding enzymic activities was carried out by means of kinetic fluorescence assays (excitation 390 nm, emission 460 nm). • Apparent Ki values were calculated from the experimentally determined IC50 values by the Cheng-Prussoff relation assuming a reversible competitive enzyme inhibition. The Km values of the substrates used under the assay conditions indicated above were: 90 μM (Z-Phe-Arg-AMC, cathepsin B), 10 μM (Z-Gly-Pro-Arg-AMC, cathepsin K), 2 μM (Z-Phe-Arg-AMC, cathepsin L), and 30 μM (Z-Val-Val-Arg-AMC, cathepsin S). • The indicated Ki values are averages of the inhibition constants calculated on the basis of 2 to 4 independent dose-effect plots. • The following assays were used: • 1. Calpain I: • 20 nM calpain-I—isolated from human erythrocytes (Calbiochem #208713), 100 μM Suc-Leu-Tyr-AMC (Bachem #I-1355) as substrate in buffer with 62 mM imidazole, 0.3 mM CaCl2, 0.10% CHAPS, 0.05% BSA, 1 mM DTT at pH 7.3 and room temperature. • 2. Cathepsin B: • 0.25 nM cathepsin B—isolated from human liver (Calbiochem #219362), 100 μM Z-Phe-Arg-AMC (Bachem #I-1160) as substrate 50 mM MES, 2 mM EDTA, 0.05% Brij 35, 2.5 mM L-cysteine, pH 6.0, room temperature. • 3. Cathepsin K: • 3 nM cathepsin K—activated from recombinant human procathepsin K from E. coli (Calbiochem #342001), 10 μM Z-Gly-Pro-Arg-AMC (Biomol #P-142) as substrate in 50 mM MES, 2 mM EDTA, 0.05% Brij 35, 2.5 mM L-cysteine, pH 6.0, room temperature. • 4. Cathepsin L: • 1 nM cathepsin L—isolated from human liver (Calbiochem #219402), 2 μM Z-Phe-Arg-AMC (Bachem #I-1160) as substrate in 50 mM MES, 2 mM EDTA, 0.05% Brij 35, 2.5 mM L-cysteine, pH 6.0, room temperature. • 5. Cathepsin S: • 0.5 nM recombinant human cathepsin S from E. coli (Calbiochem #219343), 20 μM Z-Val-Val-Arg-AMC (Bachem #I-1540) as substrate in 50 mM MES, 2 mM EDTA, 0.05% Brij 35, 2.5 mM L-cysteine, pH 6.0, room temperature. • The results of the in vitro determination are indicated in Table 2. The following abbreviations are used in Table 2: • The “Calpain activity” column, ++ stands for a calpain Ki (Ki(calpain)) of ≦40 nM, + means: 40 nM<Ki(Calpain)≦100 nM, 0 means 100 nM<Ki(Calpain)≦1 μM, − means 1 μM<Ki(Calpain)≦10 μM, −− means Ki(Calpain)>10 μM. • The “Sel. cat. B” column indicates the Ki(cathepsin B)/Ki(calpain) ratio. In this connection, ++ means a Ki(cathepsin B)/Ki(calpain) ratio of ≧30 and + means≦10≦Ki(cathepsin B)/Ki(calpain)<30. • The “Sel. cat. K” column indicates the Ki(cathepsin K)/Ki(calpain) ratio. In this connection, ++ means a Ki(cathepsin K)/Ki(calpain) ratio of ≧30 and + means 10≦Ki(cathepsin K)/Ki(calpain)<30. • The “Sel. cat. L” column indicates the Ki(cathepsin L)/Ki(calpain) ratio. In this connection, ++ means a Ki(cathepsin L)/Ki(calpain) ratio of ≧50 and + means 30≦Ki(cathepsin L)/Ki(calpain)<50. • The “Sel. cat. S” column indicates the Ki(cathepsin S)/Ki(calpain) ratio. […]

Ki: > 10 µM
Compound: NC(=O)C1(C(Cc2ccccc2)NC(=O)c2cccnc2-n2ccc(-c3cccc(C(F)(F)F)c3)n2)OCCO1 (stereo not shown) [Compound I-2, N-{1-[2-(Aminocarbonyl)-1,3-dioxolan-2-yl]-2-phenylethyl}-2-{3-[3-(trifluoromethyl)phenyl]-1H-pyrazol-1-yl}nicotinamide]
